Measurements: patent publication US9045461B2, “Phenyl-heteroaryl derivatives and methods of use thereof” (TransTech Pharma, LLC, priority 2010, dated 2015)
Counter-ions that a name gives are not always drawn.

How the values were obtained:
[1] = target: T1, sRAGE binding to β-amyloid (Homo sapiens, UniProt Q15109); assay: RAGE binding assay (ELISA), β-amyloid as the RAGE ligand; details: compounds tested in hydrochloride salt form, concentration at which 50% signal has been inhibited
T1 construct: extracellular domain can be isolated by proteolysis of RAGE to generate soluble RAGE (sRAGE) comprised of the V and C domains
T1 sequence (Q15109 23-342 limits assumed): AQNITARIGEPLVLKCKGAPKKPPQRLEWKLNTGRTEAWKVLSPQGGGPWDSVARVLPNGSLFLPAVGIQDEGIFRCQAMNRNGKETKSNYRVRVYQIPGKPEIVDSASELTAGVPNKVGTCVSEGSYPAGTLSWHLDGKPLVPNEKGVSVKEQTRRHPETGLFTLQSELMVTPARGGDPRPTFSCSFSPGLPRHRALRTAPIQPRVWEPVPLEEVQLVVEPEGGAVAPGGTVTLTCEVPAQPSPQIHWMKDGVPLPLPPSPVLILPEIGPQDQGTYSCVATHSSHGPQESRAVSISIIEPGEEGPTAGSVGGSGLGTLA
Experimental: (§1) The following assay method may be used to identify compounds of Formula (I) or pharmaceutically acceptable salts thereof which are useful as inhibitors of binding of physiological RAGE ligands, such as S100b and β-amyloid, to RAGE.
(§2) S100b, β-amyloid, or CML (500 ng/100 μL/well) in 100 mM sodium bicarbonate/sodium carbonate buffer (pH 9.8) is loaded onto the wells of a NUNC Maxisorp flat bottom 96-well microtitre plate. The plate is incubated at 4° C. overnight. The wells are aspirated and treated with 50 mM imidazole buffer saline (pH 7.2) (with 5 mM CaCl2/MgCl2) containing 1% bovine serum albumin (BSA) (300 μL/well) for 1 h at RT. The wells are aspirated.
(§3) Test compounds are dissolved in nanopure water (concentration: 10-100 μM). DMSO may be used as co-solvent. 25 μL of test compound solution in 4% DMSO is added, along with 75 μL sRAGE (6 nM FAC) to each well and samples are incubated for 1 h at 37° C. The wells are washed several times with 155 mM NaCl pH 7.2 buffer saline and are soaked for several seconds between each wash.
(§4) Non-radioactive detection is performed by adding:
(§5) 10 μL Biotinylated goat F(ab′)2 Anti-mouse IgG. (8.0×10-4 mg/mL, FAC), 5 μL Alk-phos-Streptavidin (3×10-3 mg/mL FAC), 0.42 μL per 5 mL Monoclonal antibody for sRAGE (FAC 6.0×10-3 mg/mL) to 5 mL 50 mM imidazole buffer saline (pH 7.2) containing 0.2% bovine serum albumin and 5 mM CaCl2. The mixture is incubated for 30 minutes at RT.
(§6) 100 μL of complex is added to each well and incubation is allowed to proceed at rt for 1 h. Wells are washed several times with wash buffer and soaked several seconds between each wash. 100 μL 1 mg/mL (pNPP) in 1 M diethanolamine (pH adjusted to 9.8 with HCl) is added. Color is allowed to develop in the dark for 30 min to 1 h at rt. The reaction is quenched with 10 μL of stop solution (0.5-1.0 N NaOH in 50% ethanol) and the absorbance is measured spectrophotometrically with a microplate reader at 405 nm.
(§7) The IC50 (μM) value in the ELISA assay represents the concentration of compound at which 50% signal has been inhibited.

sRAGE binding to S100b = target: T2, sRAGE binding to S100b (Homo sapiens, UniProt Q15109); assay: RAGE binding assay (ELISA), S100b as the RAGE ligand; details: compounds tested in hydrochloride salt form, concentration at which 50% signal has been inhibited
T2 construct: extracellular domain can be isolated by proteolysis of RAGE to generate soluble RAGE (sRAGE) comprised of the V and C domains
T2 sequence (Q15109 23-342 limits assumed): as above
Experimental: as §1, §2, §3, §4, §5, §6, §7

Compound	IC50 [1] [nM]	IC50 (sRAGE binding to S100b) [nM]
CCCCc1nnc(OC2CCN(C)CC2)cc1-c1ccc(OC(C)C)cc1 [Example 49, 3-Butyl-4-(4-isopropoxy-phenyl)-6-(1-methyl-piperidin-4-yloxy)-pyridazine dihydrochloride]	6260	3940
CCCCc1nnc(OC2CCN(C)CC2)cc1-c1ccc(OCc2ccc(Cl)cc2)cc1 [Example 50, 3-butyl-4-[4-(4-chloro-benzyloxy)-phenyl]-6-(1-methyl-piperidin-4-yloxy)-pyridazine dihydrochloride]	1960	1420
CCCCc1nnc(OC2CCN(C)CC2)cc1-c1ccc(OC2CCCC2)cc1 [Example 51, 3-butyl-4-(4-cyclopentyloxy-phenyl)-6-(1-methyl-piperidin-4-yloxy)-pyridazine dihydrochloride]	2620	2940
CCCCc1nnc(OC2CCN(C)CC2)cc1-c1ccc(OCCC2CCCCC2)cc1 [Example 52, 3-butyl-4-[4-(2-cyclohexyl-ethoxy)-phenyl]-6-(1-methyl-piperidin-4-yloxy)-pyridazine dihydrochloride]	690	650
CCCCc1nnc(OC2CCN(C)CC2)cc1-c1ccc(OCc2cccnn2)cc1 [Example 53, 3-butyl-6-(1-methyl-piperidin-4-yloxy)-4-[4-(pyridazin-3-ylmethoxy)-phenyl]-pyridazine trihydrochloride]	2020	2510
CCCCc1nnc(OC2CCN(C)CC2)cc1-c1ccc(OCC2CCOCC2)cc1 [Example 54, 3-butyl-6-(1-methyl-piperidin-4-yloxy)-4-[4-(tetrahydro-pyran-4-ylmethoxy)-phenyl]-pyridazine dihydrochloride]	5450	3650
CCCCc1nnc(OC2CCN(C)CC2)cc1-c1ccc(OCC2CCN(C(C)=O)CC2)cc1 [Example 55, 1-(4-{4-[3-butyl-6-(1-methyl-piperidin-4-yloxy)-pyridazin-4-yl]-phenoxymethyl}-piperidin-1-yl)-ethanone dihydrochloride]	9180	3680
CCCCc1nnc(OC2CCN(C)CC2)cc1-c1ccc(OCC2CCC(C(=O)N(C)C)CC2)cc1 (stereo not shown) [Example 56, 4-{4-[3-butyl-6-(1-methyl-piperidin-4-yloxy)-pyridazin-4-yl]-phenoxymethyl}-cyclohexanecarboxylic acid dimethylamide dihydrochloride]	2430	1800
CCCCc1nnc(OC2CCN(C)CC2)cc1-c1ccc(Oc2ccc(C)nn2)cc1 [Example 57, 3-butyl-6-(1-methyl-piperidin-4-yloxy)-4-[4-(6-methyl-pyridazin-3-yloxy)-phenyl]-pyridazine trihydrochloride]	4560	3270
CCCCc1nnc(OC2CCN(C)CC2)c(C(F)(F)F)c1-c1ccc(OC2CCCCC2)cc1 [Example 58, 3-butyl-4-(4-cyclohexyloxy-phenyl)-6-(1-methyl-piperidin-4-yloxy)-5-trifluoromethyl-pyridazine dihydrochloride]	760	740
CN1CCC(Oc2cc(-c3ccc(OC4CCCCC4)cc3)c(C3CC3)nn2)CC1 [Example 59, 4-(4-cyclohexyloxy-phenyl)-3-cyclopropyl-6-(1-methyl-piperidin-4-yloxy)-pyridazine dihydrochloride]	3160	4790
CN1CCC(Oc2cc(-c3ccc(OC4CCCCC4)cc3)c(C3CCCCC3)nn2)CC1 [Example 60, 3-cyclohexyl-4-(4-cyclohexyloxy-phenyl)-6-(1-methyl-piperidin-4-yloxy)-pyridazine dihydrochloride]	1830	1130
CN1CCC(Oc2cc(-c3ccc(OC4CCCCC4)cc3)c(C3CCC3)nn2)CC1 [Example 61, 3-cyclobutyl-4-(4-cyclohexyloxy-phenyl)-6-(1-methyl-piperidin-4-yloxy)-pyridazine dihydrochloride]	3720	3400
CCCCc1nnc(OC2CCN(C)CC2)cc1-c1ccc(OC2CCCCC2)c(NC(C)=O)c1 [Example 62, N-{5-[3-butyl-6-(1-methyl-piperidin-4-yloxy)-pyridazin-4-yl]-2-cyclohexyloxy-phenyl}-acetamide dihydrochloride]	5000	3630
CCCCc1nnc(OC2CCN(C)CC2)cc1-c1ccc(OC2CCCCC2)c(N(CC(C)C)C(C)=O)c1 [Example 63, N-{5-[3-butyl-6-(1-methyl-piperidin-4-yloxy)-pyridazin-4-yl]-2-cyclohexyloxy-phenyl}-N-isobutyl-acetamide dihydrochloride]	680	840
CCCCc1nnc(OC2CCN(C)CC2)cc1-c1ccc(OC2CCCCC2)c(N(CC(C)C)S(C)(=O)=O)c1 [Example 64, N-{5-[3-butyl-6-(1-methyl-piperidin-4-yloxy)-pyridazin-4-yl]-2-cyclohexyloxy-phenyl}-N-isobutyl-methanesulfonamide dihydrochloride]	840	880
CCCCc1nnc(OC2CCN(C)CC2)cc1-c1ccc(OC2CCCCC2)c(-c2ncco2)c1 [Example 65, 3-Butyl-4-(4-cyclohexyloxy-3-oxazol-2-yl-phenyl)-6-(1-methyl-piperidin-4-yloxy)-pyridazine dihydrochloride salt]	1780	2120
CCCCc1nnc(OC2CCN(C)CC2)cc1-c1ccc(OC2CCCCC2)c(C(C)=O)c1 [Example 66, 1-{5-[3-Butyl-6-(1-methyl-piperidin-4-yloxy)-pyridazin-4-yl]-2-cyclohexyloxy-phenyl}-ethanone]	1830	1470
CCCCc1nnc(OC2CCN(C)CC2)cc1-c1ccc(OC2CCCCC2)c(C#N)c1 [Example 67, 5-[3-Butyl-6-(1-methyl-piperidin-4-yloxy)-pyridazin-4-yl]-2-cyclohexyloxy-benzonitrile dihydrochloride]	3200	1700
CCCCc1nnc(OC2CCN(C)CC2)cc1-c1ccc(OC2CCCCC2)c(N2CCCC2=O)c1 [Example 68, 1-{5-[3-Butyl-6-(1-methyl-piperidin-4-yloxy)-pyridazin-4-yl]-2-cyclohexyloxy-phenyl}-pyrrolidin-2-one dihydrochloride]	2490	2040
CCCCc1nnc(OC2CCN(C)CC2)cc1-c1ccc(OC2CCCCC2)c(-c2cnn(C)c2)c1 [Example 69, 3-Butyl-4-[4-cyclohexyloxy-3-(1-methyl-1H-pyrazol-4-yl)-phenyl]-6-(1-methyl-piperidin-4-yloxy)-pyridazine dihydrochloride]	790	730
CCCCc1nnc(OC2CCN(C)CC2)cc1-c1ccc(OC2CCCCC2)c(-c2nnnn2C)c1 [Example 70, 3-Butyl-4-[4-cyclohexyloxy-3-(1-methyl-1H-tetrazol-5-yl)-phenyl]-6-(1-methyl-piperidin-4-yloxy)-pyridazine dihydrochloride]	2940	2170
CCCCc1nnc(OC2CCN(C)CC2)cc1-c1ccc(OC2CCCCC2)c(C(=O)OC)c1 [Example 71, 5-[3-Butyl-6-(1-methyl-piperidin-4-yloxy)-pyridazin-4-yl]-2-cyclohexyloxy-benzoic acid methyl ester dihydrochloride]	1590	1130
CCCCc1nnc(OC2CCN(C)CC2)cc1-c1ccc(OC2CCCCC2)c(-c2cnoc2)c1 [Example 72, 3-Butyl-4-(4-cyclohexyloxy-3-isoxazol-4-yl-phenyl)-6-(1-methyl-piperidin-4-yloxy)-pyridazine dihydrochloride]	1200	1690
CCCCc1nnc(OC2CCN(C)CC2)cc1-c1ccc(OC2CCCCC2)c(OC)c1 [Example 73, 3-Butyl-4-(4-cyclohexyloxy-3-methoxy-phenyl)-6-(1-methyl-piperidin-4-yloxy)-pyridazine dihydrochloride]	1040	1740
CCCCc1nnc(OC2CCN(C)CC2)cc1-c1ccc(OC2CCCCC2)c(O)c1 [Example 74, 5-[3-Butyl-6-(1-methyl-piperidin-4-yloxy)-pyridazin-4-yl]-2-cyclohexyloxy-phenol dihydrochloride]	1160	1640
